Results as given in patent US11453681B2, “Substituted eneoxindoles and uses thereof” (Gilead Sciences, Inc., priority 2019, dated 2022).

What follows are compounds tested against human HPK1 (MAP4K1) (Homo sapiens (Human), UniProt Q92918) (assay: HPK1 IC50 Assay). Settings: recombinant HPK1 kinase domain 0.15 nM, synthetic peptide substrate STK S1, 3 hours at 25° C., time-resolved fluorescence energy transfer; geometric mean of multiple experiments.
Sequence of human HPK1 (MAP4K1) (Q92918 17-274): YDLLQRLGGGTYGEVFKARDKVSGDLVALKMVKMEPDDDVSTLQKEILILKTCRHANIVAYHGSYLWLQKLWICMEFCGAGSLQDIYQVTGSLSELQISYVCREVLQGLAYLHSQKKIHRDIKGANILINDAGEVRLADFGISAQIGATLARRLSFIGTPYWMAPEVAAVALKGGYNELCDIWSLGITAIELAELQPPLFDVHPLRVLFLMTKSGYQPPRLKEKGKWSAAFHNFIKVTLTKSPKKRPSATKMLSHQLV
Type: biochemical
Description: The enzymatic activity of human HPK1 (MAP4K1) was monitored in a biochemical assay in the presence or absence of compounds and using a synthetic peptide substrate. An increase in phosphorylation of the peptide by HPK1 was indicative of its kinase activity.
Recombinant HPK1 kinase domain produced via baculovirus infection of insect cells was obtained from Proteros (Proteros Biostructures #PR-0322) and was pre-activated in the presence of 2 mM ATP (Sigma-Aldrich, cat #GE27-2056-01) and 2 mM magnesium chloride for 16 hours at 4° C. The protein reaction mixture was then loaded to a desalting column (Thermo Fisher Scientific, Cat #89889) to remove excess ATP. HPK1 was eluted with buffer containing 20 mM Tris (2-Amino-2-(hydroxymethyl)propane-1,3-diol) pH 8.0, 150 mM NaCl, 2 mM dithiothreitol and 5% glycerol, and was frozen at −80° C. for later use. HPK1 dual phosphorylation was confirmed by mass spectrometry.
Ten nanoliters of test compounds dissolved in DMSO at various concentrations were dispensed into a 384-well ProxiPlate (PerkinElmer #6008289). Five microliters of a solution of recombinant HPK1 diluted in HPK1 kinase assay buffer (50 mM BES [N,N-Bis(2-hydroxyethyl)-2-aminoethanesulfonic acid], pH 7.0; 10 mM magnesium chloride; 0.01% Triton X-100; 1 mM dithiothreitol; 0.01% bovine serum albumin; 0.1 mM sodium orthovanadate) was added to the compound-containing plate and was incubated for 15 minutes at 25° C. Five microliters of a mixture of ATP (Sigma-Aldrich #A6559) and peptide substrate STK Si (Cisbio #61ST1BLC) diluted in HPK1 kinase assay buffer was then added to start the reaction. Final concentrations were 0.15 nM for HPK1, […], and 1 […]. The reaction mixture was incubated at 25° C. for 3 hours and was stopped with the addition of 10 μl of an EDTA (Ethylenediaminetetraacetic acid)-containing detection buffer (Cisbio #62SDBRDF) supplemented with Europium cryptate-labeled anti-phospho-serine/threonine antibodies (Cisbio #62ST1PEJ) and XL665-labeled streptavidin (Cisbio #610SAXLG). The mixture was incubated for 16 hours at room temperature and peptide phosphorylation was measured by time-resolved fluorescence energy transfer (665 nm/620 nm) on an Envision plate reader (PerkinElmer).
Data in Table 1 were normalized based on positive (staurosporine) and negative (DMSO) controls. Least squares curve fittings were performed using a four-parameter variable slope nonlinear regression model. IC50 is defined as the concentration of compound required to inhibit 50% of maximum phosphorylation. IC50 values from multiple experiments were averaged by geometric mean and the standard deviation was calculated.
With CCc1nc(C)c(/C=C2\C(=O)Nc3ccc(-c4cnc5c(c4C)NCCO5)cc32)[nH]1 [Compound C6, (Z)-3-((2-ethyl-4-methyl-1H-imidazol-5-yl)methylene)-5-(8-methyl-2,3-dihydro-1H-pyrido[2,3-b][1,4]oxazin-7-yl)indolin-2-one] the IC50 was 0.12 nM. Work on Cc1c(-c2cc(F)c3c(c2)/C(=C/c2cnc(C4CC4)[nH]2)C(=O)N3)cnc2c1NCCO2 [Compound C35, (Z)-3-((2-cyclopropyl-1H-imidazol-5-yl)methylene)-7-fluoro-5-(8-methyl-2,3-dihydro-1H-pyrido[2,3-b][1,4]oxazin-7-yl)indolin-2-one] yielded an IC50 of 0.05 nM. With Cc1c(-c2ccc3c(c2)/C(=C/c2cc4cnccc4[nH]2)C(=O)N3)cnc2c1NCCO2 [Compound C60, (Z)-3-((1H-pyrrolo[3,2-c]pyridin-2-yl)methylene)-5-(8-methyl-2,3-dihydro-1H-pyrido[2,3-b][1,4]oxazin-7-yl)indolin-2-one] the IC50 was 0.06 nM. For Cc1c(-c2cc(F)c3c(c2)/C(=C/c2cc4ncccc4[nH]2)C(=O)N3)cnc2c1NCCO2 [Compound C46, (Z)-3-((1H-pyrrolo[3,2-b]pyridin-2-yl)methylene)-7-fluoro-5-(8-methyl-2,3-dihydro-1H-pyrido[2,3-b][1,4]oxazin-7-yl)indolin-2-one], the IC50 was 0.05 nM. Work on Cc1c(-c2ccc3c(c2)/C(=C/c2cc(C#N)c[nH]2)C(=O)N3)cnc2c1NCCO2 [Compound C21, (Z)-5-((5-(8-methyl-2,3-dihydro-1H-pyrido[2,3-b][1,4]oxazin-7-yl)-2-oxoindolin-3-ylidene)methyl)-1H-pyrrole-3-carbonitrile] yielded an IC50 of 0.07 nM. For C/C(=C1/C(=O)Nc2ccc(-c3cnc4c(c3C)NCCO4)cc21)c1cnc[nH]1 [Compound C11, (Z)-3-(1-(1H-imidazol-5-yl)ethylidene)-5-(8-methyl-2,3-dihydro-1H-pyrido[2,3-b][1,4]oxazin-7-yl)indolin-2-one], the IC50 was 0.44 nM. Compound Cc1c(-c2ccc3c(c2)/C(=C/c2nc4ccccc4[nH]2)C(=O)N3)cnc2c1NCCO2 [Compound C59, (Z)-3-((1H-benzo[d]imidazol-2-yl)methylene)-5-(8-methyl-2,3-dihydro-1H-pyrido[2,3-b][1,4]oxazin-7-yl)indolin-2-one] has an IC50 of 0.28 nM. With CCN(CC)CCNC(=O)c1c(C)[nH]c(/C=C2\C(=O)Nc3cc(F)c(-c4cnc5c(c4C)NCCO5)cc32)c1C [Compound C1, (Z)—N-(2-(diethylamino)ethyl)-5-((6-fluoro-5-(8-methyl-2,3-dihydro-1H-pyrido[2,3-b][1,4]oxazin-7-yl)-2-oxoindolin-3-ylidene)methyl)-2,4-dimethyl-1H-pyrrole-3-carboxamide] the IC50 was 0.05 nM. Compound Cc1c(-c2ccc3c(c2)/C(=C/c2cnc(C4CC4)[nH]2)C(=O)N3)cnc2c1NCCO2 [Compound C34, (Z)-3-((2-cyclopropyl-1H-imidazol-5-yl)methylene)-5-(8-methyl-2,3-dihydro-1H-pyrido[2,3-b][1,4]oxazin-7-yl)indolin-2-one] has an IC50 of 0.13 nM. In the case of Cc1ncc(/C=C2\C(=O)Nc3cc(C)c(-c4cnc5c(c4C)NCCO5)cc32)[nH]1 [Compound C3, (Z)-6-methyl-3-((2-methyl-1H-imidazol-5-yl)methylene)-5-(8-methyl-2,3-dihydro-1H-pyrido[2,3-b][1,4]oxazin-7-yl)indolin-2-one], the IC50 is reported as 0.19 nM. With Cc1cc2c(cc1-c1cnc3c(c1C)NCCO3)/C(=C/c1cc3ncccc3[nH]1)C(=O)N2 [Compound C38, (Z)-3-((1H-pyrrolo[3,2-b]pyridin-2-yl)methylene)-6-methyl-5-(8-methyl-2,3-dihydro-1H-pyrido[2,3-b][1,4]oxazin-7-yl)indolin-2-one] the IC50 was 0.11 nM. For Cc1n[nH]cc1/C=C1\C(=O)Nc2ccc(-c3cnc4c(c3C)NCCO4)cc21 [Compound C68, (Z)-3-((3-methyl-H-pyrazol-4-yl)methylene)-5-(8-methyl-2,3-dihydro-1H-pyrido[2,3-b][1,4]oxazin-7-yl)indolin-2-one], the IC50 was 0.32 nM. Compound Cc1c(-c2cc(F)c3c(c2C)/C(=C/c2ccc[nH]2)C(=O)N3)cnc2c1NCCO2 [Compound C14, (Z)-3-((1H-pyrrol-2-yl)methylene)-7-fluoro-4-methyl-5-(8-methyl-2,3-dihydro-1H-pyrido[2,3-b][1,4]oxazin-7-yl)indolin-2-one] has an IC50 of 0.29 nM. In the case of Cc1c(-c2cc(F)c3c(c2C)/C(=C/c2cc4ccncc4[nH]2)C(=O)N3)cnc2c1NCCO2 [Compound C63, (Z)-3-((1H-pyrrolo[2,3-c]pyridin-2-yl)methylene)-7-fluoro-4-methyl-5-(8-methyl-2,3-dihydro-1H-pyrido[2,3-b][1,4]oxazin-7-yl)indolin-2-one], the IC50 is reported as 0.41 nM. Work on Cc1ccc(/C=C2\C(=O)Nc3ccc(-c4cnc5c(c4C)NCCO5)cc32)[nH]1 [Compound C17, (Z)-3-((5-methyl-H-pyrrol-2-yl)methylene)-5-(8-methyl-2,3-dihydro-1H-pyrido[2,3-b][1,4]oxazin-7-yl)indolin-2-one] yielded an IC50 of 0.05 nM. Cc1ncc(/C=C2\C(=O)Nc3c(F)cc(-c4cnc5c(c4C)NCCO5)c(C)c32)[nH]1 [Compound C4, (Z)-7-fluoro-4-methyl-3-((2-methyl-1H-imidazol-5-yl)methylene)-5-(8-methyl-2,3-dihydro-1H-pyrido[2,3-b][1,4]oxazin-7-yl)indolin-2-one] showed an IC50 of 0.15 nM. For Cc1c(-c2cnc3c(c2)/C(=C/c2cc4cnccc4[nH]2)C(=O)N3)cnc2c1NCCO2 [Compound C47, (Z)-3-((1H-pyrrolo[3,2-c]pyridin-2-yl)methylene)-5-(8-methyl-2,3-dihydro-1H-pyrido[2,3-b][1,4]oxazin-7-yl)-1,3-dihydro-2H-pyrrolo[2,3-b]pyridin-2-one], the IC50 was 1.13 nM. Compound Cc1c[nH]c(/C=C2\C(=O)Nc3ccc(-c4cnc5c(c4C)NCCO5)cc32)c1 [Compound C28, (Z)-3-((4-methyl-H-pyrrol-2-yl)methylene)-5-(8-methyl-2,3-dihydro-1H-pyrido[2,3-b][1,4]oxazin-7-yl)indolin-2-one] has an IC50 of 0.05 nM. For Cc1c(-c2ccc3c(c2)/C(=C/c2cnc[nH]2)C(=O)N3)cnc2c1NCCO2 [Compound C32, (Z)-3-((1H-imidazol-5-yl)methylene)-5-(8-methyl-2,3-dihydro-1H-pyrido[2,3-b][1,4]oxazin-7-yl)indolin-2-one], the IC50 was 0.26 nM. With Cc1c(-c2cnc3c(c2)NCCO3)cc(F)c2c1/C(=C/c1cc3cnccc3[nH]1)C(=O)N2 [Compound C42, (Z)-3-((1H-pyrrolo[3,2-c]pyridin-2-yl)methylene)-5-(2,3-dihydro-1H-pyrido[2,3-b][1,4]oxazin-7-yl)-7-fluoro-4-methylindolin-2-one] the IC50 was 9.3 nM. Compound Cc1c(-c2ccc3c(c2)/C(=C/c2cc4cccnc4[nH]2)C(=O)N3)cnc2c1NCCO2 [Compound C61, (Z)-3-((1H-pyrrolo[2,3-b]pyridin-2-yl)methylene)-5-(8-methyl-2,3-dihydro-1H-pyrido[2,3-b][1,4]oxazin-7-yl)indolin-2-one] has an IC50 of 1.1 nM. Work on Cc1c(-c2ccc3c(c2)/C(=C/c2ncc[nH]2)C(=O)N3)cnc2c1NCCO2 [Compound C31, (Z)-3-((1H-imidazol-2-yl)methylene)-5-(8-methyl-2,3-dihydro-1H-pyrido[2,3-b][1,4]oxazin-7-yl)indolin-2-one] yielded an IC50 of 0.77 nM. For Cc1c(-c2cc3c(cc2F)NC(=O)/C3=C\c2cc3ccccc3[nH]2)cnc2c1NCCO2 [Compound C51, (Z)-3-((1H-indol-2-yl)methylene)-6-fluoro-5-(8-methyl-2,3-dihydro-1H-pyrido[2,3-b][1,4]oxazin-7-yl)indolin-2-one], the IC50 was 0.16 nM. For Cc1c(-c2cc(F)c3c(c2C)/C(=C/c2cn[nH]c2)C(=O)N3)cnc2c1NCCO2 [Compound C65, (Z)-3-((1H-pyrazol-4-yl)methylene)-7-fluoro-4-methyl-5-(8-methyl-2,3-dihydro-1H-pyrido[2,3-b][1,4]oxazin-7-yl)indolin-2-one], the IC50 was 1.03 nM. In the case of Cc1cc2c(cc1-c1cnc3c(c1C)NCCO3)/C(=C/c1cc3ccncc3[nH]1)C(=O)N2 [Compound C37, (Z)-3-((1H-pyrrolo[2,3-c]pyridin-2-yl)methylene)-6-methyl-5-(8-methyl-2,3-dihydro-1H-pyrido[2,3-b][1,4]oxazin-7-yl)indolin-2-one], the IC50 is reported as 0.69 nM. Compound Cc1ncc(/C=C2\C(=O)Nc3cc(Cl)c(-c4cnc5c(c4C)NCCO5)cc32)[nH]1 [Compound C7, (Z)-6-chloro-3-((2-methyl-1H-imidazol-5-yl)methylene)-5-(8-methyl-2,3-dihydro-1H-pyrido[2,3-b][1,4]oxazin-7-yl)indolin-2-one] has an IC50 of 0.29 nM.
